Read-outs that look alike come from different tables or passages of the source.
How the values were obtained:
Assay type in all cases: biochemical
JMJD2E = biological target: T1, JMJD2E (Homo sapiens, UniProt B2RXH2); experiment: JMJD2E FDH-coupled assay under low and high iron conditions (iron chelation profile); design: The catalytic domain of human JMJD2E (residues 1–337); His6 (N); made in house; host or cells: E. coli
T1 sequence (B2RXH2 1-337): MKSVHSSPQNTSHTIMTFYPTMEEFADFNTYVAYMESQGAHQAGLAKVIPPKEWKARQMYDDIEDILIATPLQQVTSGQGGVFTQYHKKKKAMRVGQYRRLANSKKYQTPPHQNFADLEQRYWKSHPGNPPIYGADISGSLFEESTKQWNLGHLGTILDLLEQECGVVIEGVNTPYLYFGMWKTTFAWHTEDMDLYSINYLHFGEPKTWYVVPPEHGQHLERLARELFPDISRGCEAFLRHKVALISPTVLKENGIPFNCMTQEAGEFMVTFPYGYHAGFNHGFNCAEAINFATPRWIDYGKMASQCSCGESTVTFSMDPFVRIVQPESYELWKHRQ
Procedure: The prioritized compounds were also evaluated in the screening assay using two different ferrous ion concentrations (termed high iron and low iron, respectively), in order to assess their propensity for iron chelation.
The ratio of IC50 values under high iron to low iron was calculated for each compound.

JMJD2E (KDM4E) = biological target: T2, JMJD2E (KDM4E) (Homo sapiens, UniProt B2RXH2); experiment: qHTS fluorescence FDH-coupled JMJD2E demethylase assay
T2 construct: The catalytic domain of human JMJD2E (residues 1–337); His6 (N); made in house; host or cells: E. coli
T2 sequence (B2RXH2 1-337): T1 sequence (B2RXH2 1-337)
Source text: The oxidation of formaldehyde is coupled to the reduction of NAD^+ to NADH, which is monitored by fluorescence spectroscopy. […] To this end, initial screening hits were filtered by a combination of cheminformatics (to exclude low-confidence inhibitors and autofluorescent false positives), counterscreening against the coupled-assay component formaldehyde dehydrogenase (FDH), and orthogonal direct detection of inhibition of demethylation by mass spectrometry ( Figure 1 ).
Reactions were initiated with 1 µL addition of peptide substrate solution containing final concentrations of 10 µM FAS, 50 µM 2OG, 0.25 U/mL FDH, 0.25 mM NAD^+, and 50 µM peptide substrate (ARK(me3)STGGK). A ViewLux imager (PerkinElmer, Waltham, MA) was used to measure NADH fluorescence (λex 340 nm, λem 450 nm) immediately after substrate addition and following 30 min incubation at room temperature. To record any systematic drifts in assay behavior (signal window and noise), assay plates containing no library compounds but only DMSO as a vehicle control were tested periodically (every ∼60 plates) throughout the screen.
Data were normalized to the basal response (0% activity) in the absence of enzyme and the maximal response (100% activity) in the absence of compound. Using the Hill equation, dose-response curves and IC50 values were automatically generated for each compound tested with software developed internally (www.ncgc.nih.gov/pub/openhts/curvefit/). […] The initial well fluorescence (first kinetic read) associated with each sample was stored in a database and used in the cheminformatics analysis to identify autofluorescent compounds interfering with the assay signal.

[1] = biological target: T3, formaldehyde dehydrogenase (FDH) (Pseudomonas putida, UniProt P46154); experiment: FDH coupling enzyme counterscreen
T3 construct: purchased Sigma-Aldrich
Source text: Dimethylsulfoxide certified ACS grade (DMSO) was from Fisher, Inc. HEPES buffer was obtained from Gibco. […] Black solid-bottom 1,536-well assay plates were from Greiner Bio-One (Monroe, NC).

[2] = Table S1, low iron 2.5 µM FAS, unit not in table, from Figure 2, read-out: qHTS Data: jmjd2e fas2.5um IC50
[3] = Table S1, unit not in table, from Figure 2, read-out: qHTS Data: jmjd2e IC50
[4] = Table S1, high iron, head says 20 µM FAS, unit not in table, from Figure 2, read-out: qHTS Data: jmjd2e fas20um IC50
[5] = Table S1, FDH counterscreen, unit not in table, from Figure 2, read-out: qHTS Data: jmjd2e fdh IC50

T3 sequence (P46154 whole entry): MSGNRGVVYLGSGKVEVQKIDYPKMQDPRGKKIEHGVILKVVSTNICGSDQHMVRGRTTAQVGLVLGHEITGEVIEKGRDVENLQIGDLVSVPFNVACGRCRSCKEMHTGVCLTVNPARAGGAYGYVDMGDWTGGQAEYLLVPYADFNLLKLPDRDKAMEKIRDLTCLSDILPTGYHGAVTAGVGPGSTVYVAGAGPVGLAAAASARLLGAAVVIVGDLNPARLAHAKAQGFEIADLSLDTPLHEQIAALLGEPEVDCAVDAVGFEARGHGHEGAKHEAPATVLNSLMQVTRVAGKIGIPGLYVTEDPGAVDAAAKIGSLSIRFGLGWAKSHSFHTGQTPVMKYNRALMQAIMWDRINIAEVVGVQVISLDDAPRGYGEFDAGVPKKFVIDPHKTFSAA

SMILES	IC50 (JMJD2E; Figure 2, high iron 25 µM Fe(II), read-out: IC50 values in μM, High Fe) [µM]	IC50 (JMJD2E (KDM4E); Figure 2, 100 nM JMJD2E, 10 µM FAS, read-out: IC50 values in μM, qHTS) [µM]	IC50 ([1]; Figure 2, 0.025 U/mL FDH, 10 µM formaldehyde, read-out: IC50 values in μM, FDH) [µM]	qHTS Data: jmjd2e fas20um CurveClass (JMJD2E; Table S1, high iron)	IC50 (JMJD2E; [2]) [µM]	IC50 (JMJD2E (KDM4E); [3]) [µM]	qHTS Data: jmjd2e fdh CurveClass ([1]; Table S1, FDH counterscreen)	IC50 (JMJD2E; [4]) [µM]	IC50 [1, 5] [µM]	qHTS Data: jmjd2e fas2.5um Curve comment (JMJD2E; Table S1, low iron 2.5 µM FAS)
Oc1ccc(NCc2ccccc2OCc2ccccc2F)cc1 [SID 17385881]	14.1	5	> 57	–	–	–	–	–	–	–
COC(=O)c1ccc(=O)c2nc3/c(=C/O)c(O)cc(=O)c3[nH]c12 [compound 26732584]	–	–	–	Inconclusive	2.24	8.91	Inactive	–	–	–
CCOC(=O)c1ccc(CC(=O)c2ccc(O)c(O)c2O)o1 [compound 24797852]	–	–	–	–	1.41	3.16	Inactive	10	–	–
O=C(OCC1OC(OC(=O)c2cc(O)c(O)c(OC(=O)c3cc(O)c(O)c(O)c3)c2)[C@@H](OC(=O)c2cc(O)c(O)c(OC(=O)c3cc(O)c(O)c(O)c3)c2)C(OC(=O)c2cc(O)c(O)c(OC(=O)c3cc(O)c(O)c(O)c3)c2)C1OC(=O)c1cc(O)c(O)c(OC(=O)c2cc(O)c(O)c(O)c2)c1)c1cc(O)c(O)c(OC(=O)c2cc(O)c(O)c(O)c2)c1 (stereo partly drawn) [compound 26748902]	–	–	–	–	0.16	0.28	–	15.8	7.94	–
CCN1/C(=C\c2ccc3ccccc3[n+]2CC)Sc2cc(C)ccc21.[I-] [compound 24782097]	–	–	–	Poor quality curve	17.8	1.41	Poor quality curve	14.1	22.4	Poor quality curve
Oc1ccccc1O [compound 50105556]	–	–	–	Poor quality curve	10	14.1	Inactive	14.1	–	–
Oc1cc2c(cc1O)C1c3ccc(O)c(O)c3OCC1(O)C2 (stereo not drawn) [compound 26749470]	–	–	–	Poor quality curve	1.58	0.71	Inactive	14.1	–	–
O=C(CC1Sc2ncnn2C1=O)Nc1ccc(Br)cc1 (stereo not drawn) [compound 7966079]	–	–	–	–	2	2.24	–	1	0.28	–
O=C(O)c1cccc(C(=O)O)n1 [compound 863941]	–	–	–	–	2.82	8.91	Inactive	7.94	–	–
O=[N+]([O-])c1ccc(O)c(/C=N/Nc2ccc(Cl)nn2)c1 [compound 17416266]	–	–	–	Inactive	5.62	5.62	Inactive	–	–	–
Oc1ccc(CN2CCCc3ccccc32)c2cccnc12 [compound 4249321]	–	–	–	Inactive	1.26	8.91	Inactive	–	–	–
Cc1ccc(N2C(=O)CC(Sc3ncn[nH]3)C2=O)cc1C (stereo not drawn) [compound 14726720]	–	–	–	Inactive	1.41	1.26	–	–	0.22	–
O=C(CSc1ncn[nH]1)CSc1ncn[nH]1 [compound 24783149]	–	–	–	Inactive	6.31	3.55	–	–	1	–
C[C@@H]1Cc2c(O)c(O)cc(O)c2C(=O)O1 [compound 26657786]	–	–	–	Inactive	3.55	2	Inactive	–	–	–
Cc1cc(C(=O)NNC(=S)NC(=O)/C=C/c2ccccc2Cl)n[nH]1 [compound 14736067]	–	–	–	Inactive	8.91	7.94	Inactive	–	–	–
CC(C)c1ccc(N2C(=O)CC(Sc3ncn[nH]3)C2=O)cc1 (stereo not drawn) [compound 14726804]	–	–	–	Poor quality curve	2.51	1.58	–	19.9	0.25	–

SMILES	IC50 (JMJD2E; Figure 2, high iron 25 µM Fe(II), read-out: IC50 values in μM, High Fe) [µM]	IC50 (JMJD2E (KDM4E); Figure 2, 100 nM JMJD2E, 10 µM FAS, read-out: IC50 values in μM, qHTS) [µM]	IC50 ([1]; Figure 2, 0.025 U/mL FDH, 10 µM formaldehyde, read-out: IC50 values in μM, FDH) [µM]	qHTS Data: jmjd2e fas20um CurveClass (JMJD2E; Table S1, high iron)	IC50 (JMJD2E; [2]) [µM]	IC50 (JMJD2E (KDM4E); [3]) [µM]	qHTS Data: jmjd2e fdh CurveClass ([1]; Table S1, FDH counterscreen)	IC50 (JMJD2E; [4]) [µM]	IC50 [1, 5] [µM]	qHTS Data: jmjd2e fas2.5um Curve comment (JMJD2E; Table S1, low iron 2.5 µM FAS)
O=C1C=CC2=C3c4cc(O)c(O)cc4CC3(O)COC2=C1O (stereo not drawn) [compound 26749676]	–	–	–	Poor quality curve	2	6.31	–	17.8	11.2	–
CN(N=O)c1ccc(O)c(O)c1 [compound 50106719]	–	–	–	Inactive	7.94	10	Poor quality curve	–	31.6	–
C/C(=N\Nc1ccc2nncn2n1)c1ccccn1 [compound 26664046]	–	–	–	–	8.91	10	Poor quality curve	8.91	35.5	–
O=C1CC(Sc2ncn[nH]2)C(=O)N1c1ccccc1 (stereo not drawn) [compound 14730480]	–	–	–	Inactive	2.51	2.24	–	–	0.32	–
O=C(CSc1ncn[nH]1)c1cccc([N+](=O)[O-])c1 [compound 17510781]	–	–	–	–	10	7.94	–	14.1	0.89	–
CCOc1cccc(C(=O)c2ccc(O)c(O)c2O)c1 [compound 26749554]	–	–	–	–	4.47	10	Inactive	8.91	–	–
CN(C)S(=O)(=O)c1cccc(-n2sc3ccccc3c2=O)c1 [compound 24834029]	–	–	–	–	4.47	3.55	Poor quality curve	1.26	7.94	–
Cc1ccc(C)c(S(=O)(=O)N2CCN(Cc3ccc(O)c4ncccc34)CC2)c1 [compound 24838962]	–	–	–	Inactive	10	3.55	Inconclusive	–	–	–
C[C@@](N)(Cc1ccc(O)c(O)c1)C(=O)O [compound 11112415]	–	–	–	–	4.47	4.47	Inactive	2	–	–
CN1CC[C@]2(C)c3cc(O)ccc3N(C)[C@@H]12 [compound 11112885]	–	–	–	–	8.91	2.24	Inconclusive	7.08	–	–
O=C(CCc1ccccc1)NCC(=O)N/N=C/c1ccc(O)cc1O [compound 26660953]	–	–	–	–	4.47	6.31	Poor quality curve	4.47	17.8	–
COc1ccc(Cn2c(O)c(/C=N/NC(=O)c3ccncc3)c(=O)[nH]c2=O)cc1 [compound 26667135]	–	–	–	–	8.91	7.94	Poor quality curve	8.91	14.1	–
NCC(O)c1ccc(O)c(O)c1.O=C(O)C(O)C(O)C(=O)O (stereo not drawn) [compound 50105780]	–	–	–	–	4.47	12.6	Inactive	2	–	–
O=C1c2ccc(O)c(O)c2C(=O)c2c(O)ccc(O)c21 [compound 26749241]	–	–	–	–	2.51	3.55	Inactive	15.8	–	–
O=C(OCC1O[C@@H](OC(=O)c2cc(O)c(O)c(O)c2)[C@@H](OC(=O)c2cc(O)c(O)c(O)c2)[C@@H](OC(=O)c2cc(O)c(O)c(O)c2)[C@@H]1OC(=O)c1cc(O)c(O)c(O)c1)c1cc(O)c(O)c(O)c1 (stereo partly drawn) [compound 22405492]	–	–	–	–	1.12	3.16	Inactive	14.1	–	–
